Measured values: patent publication US8802720B2, “Acylamino-substituted fused cyclopentanecarboxylic acid derivatives and their use as pharmaceuticals” (SANOFI, priority 2008, dated 2014)
pIC50: −log10 of the molar value.

target: human Edg-2 receptor (LPA1 receptor) (Homo sapiens, UniProt Q92633); assay: Edg-2 receptor inhibition by FLIPR calcium fluorescence measurement (LPA-mediated calcium liberation); type: cell-based; conditions: CHO cells stably overexpressing human Edg-2 receptor; LPA 18:1 100 nM; fluo-4 fluorescence; triplicate; read-out: Inhibitory concentrations IC50 for inhibition of the Edg-2 receptor
How it was run: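 CHO cells stably overexpressing human Edg-2 were fluo-4 loaded and pre-incubated ~5 min with compound (≤0.3% DMSO) in HBSS/HEPES/probenecid, pH 7.5. Then LPA 18:1 at 100 nM final was added. Peak calcium fluorescence over ~3 min, baseline-corrected versus DMSO, gave % inhibition in triplicate and IC50.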

Sequence of human Edg-2 receptor (LPA1 receptor) (Q92633 whole entry): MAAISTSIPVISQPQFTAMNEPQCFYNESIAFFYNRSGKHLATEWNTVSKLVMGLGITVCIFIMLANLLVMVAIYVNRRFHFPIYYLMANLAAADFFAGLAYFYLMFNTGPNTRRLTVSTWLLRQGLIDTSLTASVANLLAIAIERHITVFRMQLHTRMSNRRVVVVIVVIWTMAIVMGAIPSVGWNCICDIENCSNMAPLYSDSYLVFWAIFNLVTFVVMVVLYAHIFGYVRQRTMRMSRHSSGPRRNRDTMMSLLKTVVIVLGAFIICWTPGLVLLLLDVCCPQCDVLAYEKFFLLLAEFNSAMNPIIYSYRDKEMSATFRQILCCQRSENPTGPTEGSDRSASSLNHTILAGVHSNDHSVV

SMILES | pIC50
COc1ccc(C(=O)NC2(C(=O)O)Cc3ccccc3C2)cc1-c1cc(C)c(C)cc1C [Example 317] | 6.00 to 7.00
COc1ccc(C(=O)NC2(C(=O)O)Cc3ccccc3C2)cc1-c1cc(C(F)(F)F)ccc1F [Example 320] | > 7.00
CCOc1ccc2ccccc2c1-c1cc(C(=O)NC2(C(=O)O)Cc3ccccc3C2)ccc1OC [Example 331] | 6.00 to 7.00
COc1ccc(C(=O)NC2(C(=O)O)Cc3ccccc3C2)cc1-c1cc(Cl)cc(C)c1F [Example 333] | > 7.00
COc1ccc(C(=O)NC2(C(=O)O)Cc3ccccc3C2)cc1-c1cc(F)cc(C(F)(F)F)c1 [Example 337] | > 7.00
COc1ccc(C(=O)NC2(C(=O)O)Cc3ccccc3C2)cc1-c1cc(F)cc(OCC(C)C)c1 [Example 344] | 6.00 to 7.00
COc1ccc(C(=O)NC2(C(=O)O)Cc3ccccc3C2)cc1-c1cc(Cl)cc(C(F)(F)F)c1 [Example 347] | > 7.00
COc1ccc(C(=O)NC2(C(=O)O)Cc3ccccc3C2)cc1-c1cccc(C(F)(F)F)c1F [Example 348] | > 7.00
COc1cc(-c2cc(C(=O)NC3(C(=O)O)Cc4ccccc4C3)ccc2OC)cc(C(F)(F)F)c1 [Example 349] | > 7.00
COc1ccc(C(=O)NC2(C(=O)O)Cc3ccccc3C2)cc1-c1cc(Cl)ccc1C(F)(F)F [Example 351] | > 7.00
COc1ccc(C(=O)NC2(C(=O)O)Cc3ccccc3C2)cc1OCCc1cc(Cl)ccc1Cl [Example 352] | > 7.00
COc1ccc(C(=O)NC2(C(=O)O)Cc3ccccc3C2)cc1OCCc1nonc1C [Example 353] | 4.52 to 6.00
COc1ccc(C(=O)NC2(C(=O)O)Cc3ccccc3C2)cc1OCCc1noc2ccccc12 [Example 354] | 4.52 to 6.00
COc1ccc(C(=O)NC2(C(=O)O)Cc3ccccc3C2)cc1OCCc1cc(OC(F)(F)F)ccc1F [Example 355, 2-{3-[2-(2-fluoro-5-trifluoromethoxy-phenyl)-ethoxy]-4-methoxy-benzoylamino}-indane-2-carboxylic acid] | > 7.00
CCS(=O)(=O)c1cccc(-c2cc(C(=O)NC3(C(=O)O)Cc4ccccc4C3)cc(F)c2OC)c1 [Example 357, 2-[(3′-Ethanesulfonyl-5-fluoro-6-methoxy-biphenyl-3-carbonyl)-amino]-indane-2-carboxylic acid] | > 7.00
COc1c(F)cc(C(=O)NC2(C(=O)O)Cc3ccccc3C2)cc1-c1ccc(Cl)cc1 [Example 358] | > 7.00
COc1c(F)cc(C(=O)NC2(C(=O)O)Cc3ccccc3C2)cc1-c1cccc(NS(C)(=O)=O)c1 [Example 359] | > 7.00
COc1c(F)cc(C(=O)NC2(C(=O)O)Cc3ccccc3C2)cc1-c1cccc(C(C)C)c1 [Example 360, 2-[(5-fluoro-3′-isopropyl-6-methoxy-biphenyl-3-carbonyl)-amino]-indane-2-carboxylic acid] | > 7.00
COc1c(F)cc(C(=O)NC2(C(=O)O)Cc3ccccc3C2)cc1-c1cccc(NS(=O)(=O)N(C)C)c1 [Example 361] | > 7.00
O=C(NC1(C(=O)O)Cc2ccccc2C1)c1ccc(C(F)(F)F)c(OCCc2cc(Cl)ccc2Cl)c1 [Example 362, 2-{3-[2-(2,5-Dichloro-phenyl)-ethoxy]-4-trifluoromethyl-benzoylamino}-indane-2-carboxylic acid] | > 7.00

Second part, the molecule after the results:

pIC50 | SMILES
6.00 to 7.00 | CCS(=O)(=O)c1cccc(-c2cc(C(=O)NC3(C(=O)O)Cc4ccccc4C3)ccc2OC)c1 [Example 312, 2-[(3′-ethanesulfonyl-6-methoxy-biphenyl-3-carbonyl)-amino]-indane-2-carboxylic acid]
> 7.00 | COc1ccc(C(=O)NC2(C(=O)O)Cc3ccccc3C2)cc1-c1cc(C)cc(C(C)(C)C)c1 [Example 313]
> 7.00 | COc1ccc(C(=O)NC2(C(=O)O)Cc3ccccc3C2)cc1-c1cc(Cl)ccc1C [Example 314]
> 7.00 | COCc1cccc(-c2cc(C(=O)NC3(C(=O)O)Cc4ccccc4C3)ccc2OC)c1 [Example 315]
6.00 to 7.00 | COCc1ccccc1-c1cc(C(=O)NC2(C(=O)O)Cc3ccccc3C2)ccc1OC [Example 316]
> 7.00 | CCCOc1cccc(-c2cc(C(=O)NC3(C(=O)O)Cc4ccccc4C3)ccc2OC)c1 [Example 318]
6.00 to 7.00 | COc1ccc(C(=O)NC2(C(=O)O)Cc3ccccc3C2)cc1-c1cccc(OC(C)C)c1 [Example 319]
4.52 to 6.00 | CCCOc1ccc(-c2cc(C(=O)NC3(C(=O)O)Cc4ccccc4C3)ccc2OC)cc1Cl [Example 321]
> 7.00 | COc1ccc(C(=O)NC2(C(=O)O)Cc3ccccc3C2)cc1-c1ccc(C(F)(F)F)c(Cl)c1 [Example 322]
4.52 to 6.00 | CNC(=O)c1cccc(-c2cc(C(=O)NC3(C(=O)O)Cc4ccccc4C3)ccc2OC)c1 [Example 323]
4.52 to 6.00 | COc1ccc(C(=O)NC2(C(=O)O)Cc3ccccc3C2)cc1-c1cccc(OCC2CC2)c1 [Example 324]
> 7.00 | COc1ccc(-c2cc(C(=O)NC3(C(=O)O)Cc4ccccc4C3)ccc2OC)cc1Cl [Example 325]
6.00 to 7.00 | COc1ccc(C(=O)NC2(C(=O)O)Cc3ccccc3C2)cc1-c1ccc2occc2c1 [Example 326]
> 7.00 | COc1ccc(C(=O)NC2(C(=O)O)Cc3ccccc3C2)cc1-c1cccc(Cl)c1C [Example 327]
6.00 to 7.00 | COc1ccc(C(=O)NC2(C(=O)O)Cc3ccccc3C2)cc1-c1cccc(CCC(=O)O)c1 [Example 328]
4.52 to 6.00 | COc1ccc(C(=O)NC2(C(=O)O)Cc3ccccc3C2)cc1-c1ccsc1Cl [Example 329]
4.52 to 6.00 | COc1ccc(C(=O)NC2(C(=O)O)Cc3ccccc3C2)cc1-c1ccc2c(ccn2C)c1 [Example 330]
6.00 to 7.00 | COc1ccc(C(=O)NC2(C(=O)O)Cc3ccccc3C2)cc1-c1cc(Cl)ccc1F [Example 332]
6.00 to 7.00 | COc1ccc(C(=O)NC2(C(=O)O)Cc3ccccc3C2)cc1-c1cccc(-n2cccn2)c1 [Example 334]
> 7.00 | COc1ccc(C(=O)NC2(C(=O)O)Cc3ccccc3C2)cc1-c1cc(F)ccc1OC(C)C [Example 335]
4.52 to 6.00 | COc1ccc(C(=O)NC2(C(=O)O)Cc3ccccc3C2)cc1-c1cc(OC(C)C)ccc1F [Example 336]
4.52 to 6.00 | COc1ccc(C(=O)NC2(C(=O)O)Cc3ccccc3C2)cc1-c1cccc(CN(C)C)c1 [Example 338]
6.00 to 7.00 | COc1ccc(C(=O)NC2(C(=O)O)Cc3ccccc3C2)cc1-c1cccc(CNC(C)=O)c1 [Example 339]
6.00 to 7.00 | CCOc1ccc(-c2cc(C(=O)NC3(C(=O)O)Cc4ccccc4C3)ccc2OC)cc1C [Example 340]
4.52 to 6.00 | COc1ccc(C(=O)NC2(C(=O)O)Cc3ccccc3C2)cc1-c1ccc(OC(C)C)c(C)c1 [Example 341]
> 7.00 | COc1ccc(C(=O)NC2(C(=O)O)Cc3ccccc3C2)cc1-c1cc(F)cc(Cl)c1 [Example 342]
> 7.00 | COc1ccc(C(=O)NC2(C(=O)O)Cc3ccccc3C2)cc1-c1cc(F)cc(OC(C)C)c1 [Example 343]
> 7.00 | COc1ccc(C(=O)NC2(C(=O)O)Cc3ccccc3C2)cc1-c1ccc(F)c(C(F)(F)F)c1 [Example 345]
6.00 to 7.00 | COc1ccc(C(=O)NC2(C(=O)O)Cc3ccccc3C2)cc1-c1cccc(OCC(F)(F)F)c1 [Example 346]
4.52 to 6.00 | COc1ccc(C(=O)NC2(C(=O)O)Cc3ccccc3C2)cc1-c1cccc(NC(=O)C(C)C)c1 [Example 350]
